Experiments:
human σ2/TMEM97 receptor = target: T1, human σ2/TMEM97 receptor (Homo sapiens, UniProt Q5BJF2); assay: Binding assay to human σ2/TMEM97 receptor ([3H]-DTG, transfected HEK-293 membranes); conditions: class scale, read-out: Binding σ-2 Ki
T1 construct: expressed in transfected cells; host or cells: HEK-293
Description: Transfected HEK-293 membranes (15 μg) were incubated with 10 nM [^3H]-1,3-Di-o-tolylguanidine (DTG) in assay buffer containing Tris-HCl 50 mM at pH 8.0. NSB (non-specific binding) was measured by adding 10 μM haloperidol. The binding of the test compound was measured at either one concentration (% inhibition at 1 or 10 μM) or five different concentrations to determine affinity values (Ki). Plates were incubated at 25° C. for 120 minutes. After the incubation period, the reaction mix was transferred to MultiScreen HTS, FC plates (Millipore), filtered and washed 3 times with ice-cold 10 mM Tris-HCL (pH 8.0). Filters were dried and counted at approximately 40% efficiency in a MicroBeta scintillation counter (Perkin-Elmer) using EcoScint liquid scintillation cocktail.

human σ1 receptor = target: T2, human σ1 receptor (Homo sapiens, UniProt Q99720); assay: Human σ1 receptor radioligand assay ([3H](+)-pentazocine, transfected HEK-293 membranes); conditions: class scale, read-out: Binding σ-1 Ki
T2 construct: expressed in transfected cells; host or cells: HEK-293
Description: Transfected HEK-293 membranes (7 μg) were incubated with 5 nM of [^3H](+)-pentazocine in assay buffer containing Tris-HCl 50 mM at pH 8. NBS (non-specific binding) was measured by adding 10 μM haloperidol. The binding of the test compound was measured at either one concentration (% inhibition at 1 or 10 μM) or five different concentrations to determine affinity values (Ki). Plates were incubated at 37° C. for 120 minutes. After the incubation period, the reaction mix was then transferred to MultiScreen HTS, FC plates (Millipore), filtered and plates were washed 3 times with ice-cold 10 mM Tris-HCL (pH7.4). Filters were dried and counted at approximately 40% efficiency in a MicroBeta scintillation counter (Perkin-Elmer) using EcoScint liquid scintillation cocktail.

T2 sequence (Q99720 whole entry): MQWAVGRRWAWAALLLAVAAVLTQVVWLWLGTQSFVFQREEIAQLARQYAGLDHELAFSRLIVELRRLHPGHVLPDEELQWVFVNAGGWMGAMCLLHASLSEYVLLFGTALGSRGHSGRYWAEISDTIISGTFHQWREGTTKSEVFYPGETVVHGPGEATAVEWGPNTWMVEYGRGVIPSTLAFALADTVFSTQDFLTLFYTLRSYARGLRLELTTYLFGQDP
T1 sequence (Q5BJF2 whole entry): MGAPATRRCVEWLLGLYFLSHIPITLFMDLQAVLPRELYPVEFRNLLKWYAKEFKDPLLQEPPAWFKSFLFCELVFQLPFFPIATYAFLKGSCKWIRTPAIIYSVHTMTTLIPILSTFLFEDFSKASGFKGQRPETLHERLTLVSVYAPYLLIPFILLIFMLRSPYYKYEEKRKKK

| SMILES | Ki (human σ2/TMEM97 receptor) [nM] | Ki (human σ1 receptor) [nM] |
| --- | --- | --- |
| Cc1cc(-c2nn(C)c(Cl)c2CN2CCC3(C2)CN(Cc2ccccc2)C3)no1 [Example 60, 3-(4-((2-Benzyl-2,6-diazaspiro[3.4]octan-6-yl)methyl)-5-chloro-1-methyl-1H-pyrazol-3-yl)-5-methylisoxazole] | 100 to 500 | < 100 |
| Cc1cc(-c2nn(C)c(Cl)c2CN2CCC3(C2)CN(CCc2ccccc2)C3)no1 [Example 61, 3-(5-Chloro-1-methyl-4-((2-phenethyl-2,6-diazaspiro[3.4]octan-6-yl)methyl)-1H-pyrazol-3-yl)-5-methylisoxazole] | < 100 | 100 to 500 |
| Cc1cc(-c2nn(C)c(Cl)c2CN2CCC(C3(NCCC(C)C)CC3)C2)no1 (centres unmarked) [Example 62, 1-(1-((5-Chloro-1-methyl-3-(5-methylisoxazol-3-yl)-1H-pyrazol-4-yl)methyl)pyrrolidin-3-yl)-N-isopentylcyclopropanamine] | 100 to 500 | 500 to 1000 |
| Cc1cc(-c2nn(C)c(Cl)c2CN2CCCC(C3(NCCC(C)C)CC3)C2)no1 (centres unmarked) [Example 63, 1-(1-((5-Chloro-1-methyl-3-(5-methylisoxazol-3-yl)-1H-pyrazol-4-yl)methyl)piperidin-3-yl)-N-isopentylcyclopropanamine] | 100 to 500 | < 100 |
| Cc1cc(-c2nn(C)c(Cl)c2CN2CCCOC(CNCCC(C)C)C2)no1 (centres unmarked) [Example 64, N-((4-((5-Chloro-1-methyl-3-(5-methylisoxazol-3-yl)-1H-pyrazol-4-yl)methyl)-1,4-oxazepan-2-yl)methyl)-3-methylbutan-1-amine] | 100 to 500 | 100 to 500 |
| Cc1cc(-c2nn(C)c(Cl)c2CN2CCC3(CC2)CCN(C(C)c2ccccc2)CC3)no1 (centres unmarked) [Example 65, 3-(5-Chloro-1-methyl-4-((9-(1-phenylethyl)-3,9-diazaspiro[5.5]undecan-3-yl)methyl)-1H-pyrazol-3-yl)-5-methylisoxazole] | 100 to 500 | 100 to 500 |
| Cc1cc(-c2nn(C)c(Cl)c2CN2CCC3(CCN(Cc4ccccc4)CC3)CC2)no1 [Example 66, 3-(4-((9-Benzyl-3,9-diazaspiro[5.5]undecan-3-yl)methyl)-5-chloro-1-methyl-1H-pyrazol-3-yl)-5-methylisoxazole] | < 100 | < 100 |
| Cc1cc(-c2nn(C)c(Cl)c2CN2CCC3(CCN(CCC(C)C)CC3)CC2)no1 [Example 67, 3-(5-Chloro-4-((9-isopentyl-3,9-diazaspiro[5.5]undecan-3-yl)methyl)-1-methyl-1H-pyrazol-3-yl)-5-methylisoxazole] | < 100 | 500 to 1000 |
| Cc1cc(-c2nn(C)c(Cl)c2CN2CCC3(CC2)CCN(CC(C)(C)C)CC3)no1 [Example 68, 3-(5-Chloro-1-methyl-4-((9-neopentyl-3,9-diazaspiro[5.5]undecan-3-yl)methyl)-1H-pyrazol-3-yl)-5-methylisoxazole] | < 100 | 100 to 500 |
| Cc1cc(-c2nn(C)c(Cl)c2CN2CC[C@]3(CCN(CCC(C)(C)C)C3)C2)no1 [Example 69, (S)-3-(5-Chloro-4-((7-(3,3-dimethylbutyl)-2,7-diazaspiro[4.4]nonan-2-yl)methyl)-1-methyl-1H-pyrazol-3-yl)-5-methylisoxazole] | < 100 | < 100 |
| Cc1cc(-c2nn(C)c(Cl)c2CN2CC[C@@]3(CCN(CCC(C)(C)C)C3)C2)no1 [Example 70, (R)-3-(5-chloro-4-((7-(3,3-dimethylbutyl)-2,7-diazaspiro[4.4]nonan-2-yl)methyl)-1-methyl-1H-pyrazol-3-yl)-5-methylisoxazole] | < 100 | < 100 |
| Cc1cc(-c2nn(C)c(Cl)c2CN2CC[C@H](CNCCc3ccccc3)C2)no1 [Example 71, (R)-N-((1-((5-Chloro-1-methyl-3-(5-methylisoxazol-3-yl)-1H-pyrazol-4-yl)methyl)pyrrolidin-3-yl)methyl)-2-phenylethanamine] | 100 to 500 | > 1000 |
| Cc1cc(-c2nn(C)c(Cl)c2CN2CC[C@@H](CNCCc3ccccc3)C2)no1 [Example 72, (S)-N-((1-((5-chloro-1-methyl-3-(5-methylisoxazol-3-yl)-1H-pyrazol-4-yl)methyl)pyrrolidin-3-yl)methyl)-2-phenylethanamine] | 100 to 500 | 500 to 1000 |
| Cc1cc(-c2nn(C)c(Cl)c2CN2CC[C@@H](CNCCC(C)(C)C)C2)no1 [Example 73, (S)-N-((1-((5-Chloro-1-methyl-3-(5-methylisoxazol-3-yl)-1H-pyrazol-4-yl)methyl)pyrrolidin-3-yl)methyl)-3,3-dimethylbutan-1-amine] | < 100 | 100 to 500 |
| Cc1cc(-c2nn(C)c(Cl)c2CN2CC[C@H](CNCCC(C)(C)C)C2)no1 [Example 74, (R)-N-((1-((5-chloro-1-methyl-3-(5-methylisoxazol-3-yl)-1H-pyrazol-4-yl)methyl)pyrrolidin-3-yl)methyl)-3,3-dimethylbutan-1-amine] | < 100 | 100 to 500 |
| Cc1cc(-c2nn(C)c(Cl)c2CN2CC[C@]3(C2)C[C@H](NCCC(C)(C)C)C3)no1 [Example 75, (2s,4r)-6-((5-Chloro-1-methyl-3-(5-methylisoxazol-3-yl)-1H-pyrazol-4-yl)methyl)-N-(3,3-dimethylbutyl)-6-azaspiro[3.4]octan-2-amine] | < 100 | 500 to 1000 |
| Cc1cc(-c2nn(C)c(Cl)c2CN2CC[C@]3(C2)C[C@@H](NCCC(C)(C)C)C3)no1 [Example 76] | 100 to 500 | 100 to 500 |
| Cc1cc(-c2nn(C)c(Cl)c2CN2C[C@@H](CNCCC(C)(C)C)[C@H](C)C2)no1 [Example 77, N-(((3R,4S)-1-((5-Chloro-1-methyl-3-(5-methylisoxazol-3-yl)-1H-pyrazol-4-yl)methyl)-4-methylpyrrolidin-3-yl)methyl)-3,3-dimethylbutan-1-amine] | < 100 | 100 to 500 |
| Cc1cc(-c2nn(C)c(Cl)c2CN2C[C@H](CNCCC(C)(C)C)[C@@H](C)C2)no1 [Example 78, N-(((3S,4R)-1-((5-Chloro-1-methyl-3-(5-methylisoxazol-3-yl)-1H-pyrazol-4-yl)methyl)-4-methylpyrrolidin-3-yl)methyl)-3,3-dimethylbutan-1-amine] | < 100 | 100 to 500 |
| Cc1cc(-c2nn(C)c(Cl)c2CN2CCCCC(NCCN3CCCCC3)C2)no1 (centres unmarked) [Example 79, 1-((5-Chloro-1-methyl-3-(5-methylisoxazol-3-yl)-1H-pyrazol-4-yl)methyl)-N-(2-(piperidin-1-yl)ethyl)azepan-3-amine] | 100 to 500 | > 1000 |
| Cc1cc(-c2nn(C)c(Cl)c2CN2CCCCC(N(C)CCC(C)C)C2)no1 (centres unmarked) [Example 80, 1-((5-Chloro-1-methyl-3-(5-methylisoxazol-3-yl)-1H-pyrazol-4-yl)methyl)-N-isopentyl-N-methylazepan-3-amine] | 500 to 1000 | 100 to 500 |
| Cc1cc(-c2nn(C)c(Cl)c2CN2CCCCC(N(C)CC3CCOCC3)C2)no1 (centres unmarked) [Example 81, 1-((5-Chloro-1-methyl-3-(5-methylisoxazol-3-yl)-1H-pyrazol-4-yl)methyl)-N-methyl-N-((tetrahydro-2H-pyran-4-yl)methyl)azepan-3-amine] | 100 to 500 | 100 to 500 |
| Cc1cc(-c2nn(C)c(Cl)c2CN2CCCCC(N(C)CCN3CCCCC3)C2)no1 (centres unmarked) [Example 82, 1-((5-Chloro-1-methyl-3-(5-methylisoxazol-3-yl)-1H-pyrazol-4-yl)methyl)-N-methyl-N-(2-(piperidin-1-yl)ethyl)azepan-3-amine] | 100 to 500 | 500 to 1000 |
| Cc1cc(-c2nn(C)c(Cl)c2C(=O)N2CCCC(CNCCC(C)(C)C)C2)no1 (centres unmarked) [Example 83, (5-Chloro-1-methyl-3-(5-methylisoxazol-3-yl)-1H-pyrazol-4-yl)(3-(((3,3-dimethylbutyl)amino)methyl)piperidin-1-yl)methanone] | < 100 | 500 to 1000 |
| Cc1cc(-c2nn(C)c(Cl)c2C(=O)N2CCCCC(NCCC(C)C)C2)no1 (centres unmarked) [Example 84, (5-Chloro-1-methyl-3-(5-methylisoxazol-3-yl)-1H-pyrazol-4-yl)(3-(isopentylamino)azepan-1-yl)methanone] | 100 to 500 | > 1000 |
| Cc1cc(-c2nn(C)c(Cl)c2C(=O)N2CCCCC(NCCc3ccccc3)C2)no1 (centres unmarked) [Example 85, (5-Chloro-1-methyl-3-(5-methylisoxazol-3-yl)-1H-pyrazol-4-yl)(3-(phenethylamino)azepan-1-yl)methanone] | 100 to 500 | > 1000 |
| Cc1cc(-c2nn(C)c(Cl)c2C(=O)N2CCCCC(NCc3ccccc3)C2)no1 (centres unmarked) [Example 86, (3-(Benzylamino)azepan-1-yl)(5-chloro-1-methyl-3-(5-methylisoxazol-3-yl)-1H-pyrazol-4-yl)methanone] | 100 to 500 | > 1000 |
| Cc1cc(-c2nn(C)c(Cl)c2C(=O)N2CCC3(CCN(CCC(C)(C)C)C3)CC2)no1 [Example 87, (5-Chloro-1-methyl-3-(5-methylisoxazol-3-yl)-1H-pyrazol-4-yl)(2-(3,3-dimethylbutyl)-2,8-diazaspiro[4.5]decan-8-yl)methanone] | < 100 | 500 to 1000 |

Reference: patent publication US20240239781A1, “1H-PYRAZOLE DERIVATIVES AS SIGMA LIGANDS” (ACONDICIONAMIENTO TARRASENSE, priority 2021, published 2024)
